From BindingDB's records for doi:10.1021/jm7012858 (Wyeth Research, 2008)

Target: Phosphatidylinositol 3-kinase regulatory subunit alpha/4,5-bisphosphate 3-kinase catalytic subunit alpha isoform (Homo sapiens, UniProt P42336)
Experiment: PI3K Inhibition Assay
Protocol: Inhibition of PI3K enzyme activity is measured in a microtiter plate-based fluorescence polarization (FP) assay.

Chain of Phosphatidylinositol 3-kinase regulatory subunit alpha/4,5-bisphosphate 3-kinase catalytic subunit alpha isoform (P27986 whole entry, canonical isoform): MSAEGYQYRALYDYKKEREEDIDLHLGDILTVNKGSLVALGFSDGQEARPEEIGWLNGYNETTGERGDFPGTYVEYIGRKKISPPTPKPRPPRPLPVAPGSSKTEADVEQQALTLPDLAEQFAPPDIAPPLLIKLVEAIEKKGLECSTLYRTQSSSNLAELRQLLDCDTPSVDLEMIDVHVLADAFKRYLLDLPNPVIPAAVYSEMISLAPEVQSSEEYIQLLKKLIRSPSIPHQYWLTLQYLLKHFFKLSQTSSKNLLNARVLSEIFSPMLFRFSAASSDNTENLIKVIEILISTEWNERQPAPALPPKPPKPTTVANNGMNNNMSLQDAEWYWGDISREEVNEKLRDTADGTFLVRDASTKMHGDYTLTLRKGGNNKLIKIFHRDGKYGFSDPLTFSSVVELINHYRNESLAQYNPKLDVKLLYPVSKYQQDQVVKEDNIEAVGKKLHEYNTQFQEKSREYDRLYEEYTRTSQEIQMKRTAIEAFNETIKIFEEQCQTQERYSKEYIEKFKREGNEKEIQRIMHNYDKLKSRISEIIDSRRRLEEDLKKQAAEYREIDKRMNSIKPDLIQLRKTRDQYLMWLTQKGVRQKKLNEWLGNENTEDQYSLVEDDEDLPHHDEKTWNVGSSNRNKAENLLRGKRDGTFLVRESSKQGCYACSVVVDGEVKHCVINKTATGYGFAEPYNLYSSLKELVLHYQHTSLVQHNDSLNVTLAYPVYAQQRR
Chain of Phosphatidylinositol 3-kinase regulatory subunit alpha/4,5-bisphosphate 3-kinase catalytic subunit alpha isoform (P42336 whole entry, canonical isoform): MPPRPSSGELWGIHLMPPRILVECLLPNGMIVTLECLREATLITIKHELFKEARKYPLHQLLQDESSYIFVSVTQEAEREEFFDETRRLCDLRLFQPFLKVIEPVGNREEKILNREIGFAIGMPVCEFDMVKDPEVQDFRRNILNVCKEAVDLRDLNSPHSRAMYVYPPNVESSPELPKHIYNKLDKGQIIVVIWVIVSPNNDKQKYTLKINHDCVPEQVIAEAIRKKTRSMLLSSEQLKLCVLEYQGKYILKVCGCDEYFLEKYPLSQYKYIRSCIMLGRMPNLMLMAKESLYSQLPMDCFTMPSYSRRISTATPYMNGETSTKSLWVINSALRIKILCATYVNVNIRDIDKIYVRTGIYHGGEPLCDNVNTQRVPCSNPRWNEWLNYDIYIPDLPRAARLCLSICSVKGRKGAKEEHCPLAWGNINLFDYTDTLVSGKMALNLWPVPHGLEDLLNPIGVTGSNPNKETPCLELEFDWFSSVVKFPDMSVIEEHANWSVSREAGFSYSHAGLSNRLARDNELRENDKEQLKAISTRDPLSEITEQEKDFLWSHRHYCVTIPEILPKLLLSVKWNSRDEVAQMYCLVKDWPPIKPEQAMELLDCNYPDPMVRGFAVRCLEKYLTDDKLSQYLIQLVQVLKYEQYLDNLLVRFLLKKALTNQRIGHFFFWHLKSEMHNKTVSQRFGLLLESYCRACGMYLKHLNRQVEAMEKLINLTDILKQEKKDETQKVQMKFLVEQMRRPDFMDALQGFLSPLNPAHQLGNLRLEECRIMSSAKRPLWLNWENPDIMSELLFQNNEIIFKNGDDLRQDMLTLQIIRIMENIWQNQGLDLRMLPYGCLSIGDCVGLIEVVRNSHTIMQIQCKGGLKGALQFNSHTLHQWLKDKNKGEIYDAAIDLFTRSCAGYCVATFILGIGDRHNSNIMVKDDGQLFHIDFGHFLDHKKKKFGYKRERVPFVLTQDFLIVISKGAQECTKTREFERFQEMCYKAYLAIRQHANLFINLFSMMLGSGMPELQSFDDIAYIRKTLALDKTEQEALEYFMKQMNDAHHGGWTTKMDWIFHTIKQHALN

Compound | IC50 (pH 7.5, 22 °C) | IC50
COC[C@H]1OC(=O)C(=CN2CCN(CCCN3CCOCC3)CC2)C2C(=O)C(=O)C3=C([C@H](OC(C)=O)C[C@@]4(C)C3CC[C@@H]4O)[C@]21C (stereo partly drawn) [(2R,3S,6E,14S,15S,17R)-8,14-dihydroxy-3-(methoxymethyl)-2,15-dimethyl-6-({4-[3-(morpholin-4-yl)propyl]piperazin-1-yl}methylidene)-5,9-dioxo-4-oxatetracyclo[8.7.0.0^{2,7}.0^{11,15}]heptadeca-1(10),7-dien-17-yl acetate] | – | 45 nM
CCN(C=C1C(=O)O[C@H](COC)[C@]2(C)C3=C(C(=O)C(=O)C12)C1CC[C@H](O)[C@@]1(C)C[C@H]3OC(C)=O)CCN(CC)CC (stereo partly drawn) [(2R,3S,6E,14S,15S,17R)-6-({[2-(diethylamino)ethyl](ethyl)amino}methylidene)-8,14-dihydroxy-3-(methoxymethyl)-2,15-dimethyl-5,9-dioxo-4-oxatetracyclo[8.7.0.0^{2,7}.0^{11,15}]heptadeca-1(10),7-dien-17-yl acetate] | – | 24 nM
COC[C@H]1OC(=O)C(=CN2CCOCC2)C2C(=O)C(=O)C3=C([C@H](OC(C)=O)C[C@@]4(C)C3CC[C@@H]4O)[C@]21C (stereo partly drawn) [(2R,3S,6E,14S,15S,17R)-8,14-dihydroxy-3-(methoxymethyl)-2,15-dimethyl-6-(morpholin-4-ylmethylidene)-5,9-dioxo-4-oxatetracyclo[8.7.0.0^{2,7}.0^{11,15}]heptadeca-1(10),7-dien-17-yl acetate] | – | 37 nM
COC[C@H]1OC(=O)C(=CN(CCC#N)Cc2ccccc2)C2C(=O)C(=O)C3=C([C@H](OC(C)=O)C[C@@]4(C)C3CC[C@@H]4O)[C@]21C (stereo partly drawn) [(2R,3S,6E,14S,15S,17R)-6-{[benzyl(2-cyanoethyl)amino]methylidene}-8,14-dihydroxy-3-(methoxymethyl)-2,15-dimethyl-5,9-dioxo-4-oxatetracyclo[8.7.0.0^{2,7}.0^{11,15}]heptadeca-1(10),7-dien-17-yl acetate] | – | 444 nM
COC[C@H]1OC(=O)C(=CN2CCN(C3CCCCC3)CC2)C2C(=O)C(=O)C3=C([C@H](OC(C)=O)C[C@@]4(C)C3CC[C@@H]4O)[C@]21C (stereo partly drawn) [(2R,3S,6E,14S,15S,17R)-6-[(4-cyclohexylpiperazin-1-yl)methylidene]-8,14-dihydroxy-3-(methoxymethyl)-2,15-dimethyl-5,9-dioxo-4-oxatetracyclo[8.7.0.0^{2,7}.0^{11,15}]heptadeca-1(10),7-dien-17-yl acetate] | – | 43 nM
COC[C@H]1OC(=O)C(=CN(CCCN(C)C)CCCN(C)C)C2C(=O)C(=O)C3=C([C@H](OC(C)=O)C[C@@]4(C)C3CC[C@@H]4O)[C@]21C (stereo partly drawn) [(2R,3S,6E,14S,15S,17R)-6-({bis[3-(dimethylamino)propyl]amino}methylidene)-8,14-dihydroxy-3-(methoxymethyl)-2,15-dimethyl-5,9-dioxo-4-oxatetracyclo[8.7.0.0^{2,7}.0^{11,15}]heptadeca-1(10),7-dien-17-yl acetate] | – | 22 nM
COC[C@H]1OC(=O)C(=CN(C)CCCN2CCN(C)CC2)C2C(=O)C(=O)C3=C([C@H](OC(C)=O)C[C@@]4(C)C3CC[C@@H]4O)[C@]21C (stereo partly drawn) [(2R,3S,6E,14S,15S,17R)-8,14-dihydroxy-3-(methoxymethyl)-2,15-dimethyl-6-({methyl[3-(4-methylpiperazin-1-yl)propyl]amino}methylidene)-5,9-dioxo-4-oxatetracyclo[8.7.0.0^{2,7}.0^{11,15}]heptadeca-1(10),7-dien-17-yl acetate] | – | 10 nM
CCN(CC)CCN(C)C=C1C(=O)O[C@H](COC)[C@]2(C)C3=C(C(=O)C(=O)C12)C1CC[C@H](O)[C@@]1(C)C[C@H]3OC(C)=O (stereo partly drawn) [(2R,3S,6E,14S,15S,17R)-6-({[2-(diethylamino)ethyl](methyl)amino}methylidene)-8,14-dihydroxy-3-(methoxymethyl)-2,15-dimethyl-5,9-dioxo-4-oxatetracyclo[8.7.0.0^{2,7}.0^{11,15}]heptadeca-1(10),7-dien-17-yl acetate] | – | 50 nM
COC[C@H]1OC(=O)C(=CN2CCN(CCCN(C)C)CC2)C2C(=O)C(=O)C3=C([C@H](OC(C)=O)C[C@@]4(C)C3CC[C@@H]4O)[C@]21C (stereo partly drawn) [(2R,3S,6E,14S,15S,17R)-6-({4-[3-(dimethylamino)propyl]piperazin-1-yl}methylidene)-8,14-dihydroxy-3-(methoxymethyl)-2,15-dimethyl-5,9-dioxo-4-oxatetracyclo[8.7.0.0^{2,7}.0^{11,15}]heptadeca-1(10),7-dien-17-yl acetate] | – | 38 nM
COC[C@H]1OC(=O)C(=CN(C)CCCC(=O)O)C2C(=O)C(=O)C3=C([C@H](OC(C)=O)C[C@@]4(C)C3CC[C@@H]4O)[C@]21C (stereo partly drawn) [4-({[(2R,3S,6E,14S,15S,17R)-17-(acetyloxy)-8,14-dihydroxy-3-(methoxymethyl)-2,15-dimethyl-5,9-dioxo-4-oxatetracyclo[8.7.0.0^{2,7}.0^{11,15}]heptadeca-1(10),7-dien-6-ylidene]methyl}(methyl)amino)butanoic acid] | – | 193 nM

Results, then the molecule that gave them:

IC50 (pH 7.5, 22 °C) | IC50 | Compound
> 10000 nM | – | COC[C@H]1OC(=O)C(=CNC(C)(C)C)C2C(=O)C(=O)C3=C([C@H](OC(C)=O)C[C@@]4(C)C3CC[C@@H]4O)[C@]21C (stereo partly drawn) [(2R,3S,6Z,14S,15S,17R)-6-[(tert-butylamino)methylidene]-8,14-dihydroxy-3-(methoxymethyl)-2,15-dimethyl-5,9-dioxo-4-oxatetracyclo[8.7.0.0^{2,7}.0^{11,15}]heptadeca-1(10),7-dien-17-yl acetate]
7850 nM | – | CCN(C=C1C(=O)O[C@H](COC)[C@]2(C)C3=C(C(=O)C(=O)C12)C1CC[C@H](O)[C@@]1(C)C[C@H]3O)CC (stereo partly drawn) [(2R,3S,6Z,14S,15S,17R)-6-[(diethylamino)methylidene]-8,14,17-trihydroxy-3-(methoxymethyl)-2,15-dimethyl-4-oxatetracyclo[8.7.0.0^{2,7}.0^{11,15}]heptadeca-1(10),7-diene-5,9-dione]
635 nM | – | CCCCN(C)C=C1C(=O)O[C@H](COC)[C@]2(C)C3=C(C(=O)C(=O)C12)C1CC[C@H](O)[C@@]1(C)C[C@H]3OC(C)=O (stereo partly drawn) [(2R,3S,6Z,14S,15S,17R)-6-{[butyl(methyl)amino]methylidene}-8,14-dihydroxy-3-(methoxymethyl)-2,15-dimethyl-5,9-dioxo-4-oxatetracyclo[8.7.0.0^{2,7}.0^{11,15}]heptadeca-1(10),7-dien-17-yl acetate]
– | 31 nM | COC[C@H]1OC(=O)C(=CN2CCC(C(=O)OC)CC2)C2C(=O)C(=O)C3=C([C@H](OC(C)=O)C[C@@]4(C)C3CC[C@@H]4O)[C@]21C (stereo partly drawn) [methyl 1-{[(2R,3S,6E,14S,15S,17R)-17-(acetyloxy)-8,14-dihydroxy-3-(methoxymethyl)-2,15-dimethyl-5,9-dioxo-4-oxatetracyclo[8.7.0.0^{2,7}.0^{11,15}]heptadeca-1(10),7-dien-6-ylidene]methyl}piperidine-4-carboxylate]
1110 nM | – | COC[C@H]1OC(=O)C(=CN(CCO)C(C)(C)C)C2C(=O)C(=O)C3=C([C@H](OC(C)=O)C[C@@]4(C)C3CC[C@@H]4O)[C@]21C (stereo partly drawn) [(2R,3S,6Z,14S,15S,17R)-6-{[tert-butyl(2-hydroxyethyl)amino]methylidene}-8,14-dihydroxy-3-(methoxymethyl)-2,15-dimethyl-5,9-dioxo-4-oxatetracyclo[8.7.0.0^{2,7}.0^{11,15}]heptadeca-1(10),7-dien-17-yl acetate]
638 nM | – | COC[C@H]1OC(=O)C(=CN(C)CCCN(C)C)C2C(=O)C(=O)C3=C([C@H](O)C[C@@]4(C)C3CC[C@@H]4O)[C@]21C (stereo partly drawn) [(2R,3S,6Z,14S,15S,17R)-6-({[3-(dimethylamino)propyl](methyl)amino}methylidene)-8,14,17-trihydroxy-3-(methoxymethyl)-2,15-dimethyl-4-oxatetracyclo[8.7.0.0^{2,7}.0^{11,15}]heptadeca-1(10),7-diene-5,9-dione]
– | 127 nM | COC[C@H]1OC(=O)C(=CN(C)N2CCC(C)C2)C2C(=O)C(=O)C3=C([C@H](OC(C)=O)C[C@@]4(C)C3CC[C@@H]4O)[C@]21C (stereo partly drawn) [(2R,3S,6E,14S,15S,17R)-8,14-dihydroxy-3-(methoxymethyl)-2,15-dimethyl-6-{[methyl(3-methylpyrrolidin-1-yl)amino]methylidene}-5,9-dioxo-4-oxatetracyclo[8.7.0.0^{2,7}.0^{11,15}]heptadeca-1(10),7-dien-17-yl acetate]
382 nM | – | CCN(C=C1C(=O)O[C@H](COC)[C@]2(C)C3=C(C(=O)C(=O)C12)C1CC[C@H](O)[C@@]1(C)C[C@H]3OC(C)=O)CC (stereo partly drawn) [(2R,3S,6Z,14S,15S,17R)-6-[(diethylamino)methylidene]-8,14-dihydroxy-3-(methoxymethyl)-2,15-dimethyl-5,9-dioxo-4-oxatetracyclo[8.7.0.0^{2,7}.0^{11,15}]heptadeca-1(10),7-dien-17-yl acetate]
– | 1580 nM | COC[C@H]1OC(=O)C(=CN(C)CC(=O)OC(C)(C)C)C2C(=O)C(=O)C3=C([C@H](OC(C)=O)C[C@@]4(C)C3CC[C@@H]4O)[C@]21C (stereo partly drawn) [tert-butyl 2-({[(2R,3S,6E,14S,15S,17R)-17-(acetyloxy)-8,14-dihydroxy-3-(methoxymethyl)-2,15-dimethyl-5,9-dioxo-4-oxatetracyclo[8.7.0.0^{2,7}.0^{11,15}]heptadeca-1(10),7-dien-6-ylidene]methyl}(methyl)amino)acetate]
440 nM | – | COC[C@H]1OC(=O)C(=CN(C)C(C)(C)C)C2C(=O)C(=O)C3=C([C@H](OC(C)=O)C[C@@]4(C)C3CC[C@@H]4O)[C@]21C (stereo partly drawn) [(2R,3S,6Z,14S,15S,17R)-6-{[tert-butyl(methyl)amino]methylidene}-8,14-dihydroxy-3-(methoxymethyl)-2,15-dimethyl-5,9-dioxo-4-oxatetracyclo[8.7.0.0^{2,7}.0^{11,15}]heptadeca-1(10),7-dien-17-yl acetate]
– | 90 nM | COC[C@H]1OC(=O)C(=CN2CCN(C)CC2)C2C(=O)C(=O)C3=C([C@H](OC(C)=O)C[C@@]4(C)C3CC[C@@H]4O)[C@]21C (stereo partly drawn) [(2R,3S,6E,14S,15S,17R)-8,14-dihydroxy-3-(methoxymethyl)-2,15-dimethyl-6-[(4-methylpiperazin-1-yl)methylidene]-5,9-dioxo-4-oxatetracyclo[8.7.0.0^{2,7}.0^{11,15}]heptadeca-1(10),7-dien-17-yl acetate]
